Test results published in patent publication US20110086875A1, “Powdered Medicament for Nasal Delivery of Ascorbic Acid for Reducing Apomorphine Induced Toxicity to Ciliated Tissue” (BRITANNIA PHARMACEUTICALS LIMITED, priority 2007, published 2011).

Test system: ciliated tissue taken from the trachea of a chick embryo
Assay: Cilia beat frequency (CBF) model
Format: cell-based
From the text: By “toxic” herein is meant that the active agent has an adverse effect on the cilia beat frequency of ciliated tissue taken from the trachea of a chick embryo according to the model that is well known in the art (“The Effect of Nasal Drug Formulations on Ciliary Beating in Vitro,” Romeijn, et al.; Int. J. Pharm., 135; 1996: 137-145; “Classification of Cilio-Inhibiting Effects of Nasal Drugs,” Merkus, et al., Laryngoscope, 111(4); April 2001: 595-602). By “ameliorating said toxicity” herein is meant that the adverse effect of the active agent on the cilia beat frequency is lessened as a result of the inclusion in the medicament of ascorbic acid for co-administration with said active agent. […]
The cilia beat frequency (CBF) model is a recognised technique to investigate the relative toxicity of substances applied in solution to a section of ciliated tissue taken from the trachea of a chick embryo (Romeijn, et al., 1996, Merkus, et al., 2001). […] The tissue is then transferred to a well containing 1.0 ml of test solution and the impact on CBF assessed. Further, the reversibility of any effects can be measured by washing the tissue in Locke-Ringer solution 15 minute post administration and evaluating the recovery of CBF.

Structure (SMILES) | reversibility of toxic effect on CBF after washing | effect of adding ascorbic acid on the apomorphine-induced arrest of cilia beat movement (1% wt. ascorbic acid added to 1% apomorphine in MLR solution, single administration, FIG. 1)
CN1CCc2cccc3c2[C@H]1Cc1ccc(O)c(O)c1-3 [apomorphine] | irreversible | –
O=C1O[C@H]([C@@H](O)CO)C(O)=C1O [ascorbic acid] | – | ameliorated significantly
